Target: Human plasma kallikrein (Homo sapiens (Human), UniProt P03952)
Experiment: In vitro plasma kallikrein inhibition assay (chromogenic substrate D-Pro-Phe-Arg-pNa, absorbance at 405 nm, IC50 determination)
Type: biochemical
Settings: read-out: KLKB1 pIC50 (converted)

Chain of Human plasma kallikrein (P03952 391-638): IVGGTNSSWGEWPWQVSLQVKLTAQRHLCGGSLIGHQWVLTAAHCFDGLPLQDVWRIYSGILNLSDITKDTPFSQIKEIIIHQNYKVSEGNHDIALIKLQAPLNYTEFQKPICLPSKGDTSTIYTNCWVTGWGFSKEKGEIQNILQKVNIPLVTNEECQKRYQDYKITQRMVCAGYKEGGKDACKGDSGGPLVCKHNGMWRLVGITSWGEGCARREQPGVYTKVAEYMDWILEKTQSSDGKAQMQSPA
Chain of Human plasma kallikrein (P03952 20-390 partner): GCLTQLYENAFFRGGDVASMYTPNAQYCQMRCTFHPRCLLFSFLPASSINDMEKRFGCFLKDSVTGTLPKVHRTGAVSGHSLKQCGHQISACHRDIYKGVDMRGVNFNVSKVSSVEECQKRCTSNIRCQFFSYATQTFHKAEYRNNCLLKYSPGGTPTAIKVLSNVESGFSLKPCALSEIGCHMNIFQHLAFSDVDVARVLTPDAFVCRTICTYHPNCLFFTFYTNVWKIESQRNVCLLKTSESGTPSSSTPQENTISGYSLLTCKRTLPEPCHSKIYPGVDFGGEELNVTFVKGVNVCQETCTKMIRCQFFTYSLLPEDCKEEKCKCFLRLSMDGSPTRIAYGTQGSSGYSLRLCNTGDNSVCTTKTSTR

| Compound | IC50 |
| --- | --- |
| CCc1cc(N)nc(CC)c1CNC(=O)c1ccc2c(c1)[C@@H]1O[C@H]2c2ccc(-c3ccc(F)cc3F)cc21 (single isomer, unassigned) [Example 248] | 2570 nM |
| Cc1cc(N)nc(C)c1CNC(=O)c1ccc2c(c1)[C@@H]1O[C@H]2c2ccc(N(c3cccc(F)c3)C(C)C)cc21 (single isomer, unassigned) [Example 249] | 93.3 nM |
| CCCN(c1cccc(F)c1)c1ccc2c(c1)[C@H]1O[C@@H]2c2ccc(C(=O)NCc3c(C)cc(N)nc3C)cc21 (single isomer, unassigned) [Example 250] | 33.1 nM |
| Cc1cc(N)nc(C)c1CNC(=O)c1ccc2c(c1)[C@@H]1O[C@H]2c2ccc(-c3cn4ccccc4n3)cc21 (single isomer, unassigned) [Example 252] | 93.3 nM |
| COc1ccc(CNC(=O)c2ccc3c(c2)[C@@H]2O[C@H]3c3ccc(-c4ccccc4F)cc32)cc1 (single isomer, unassigned) [Example 253] | 100000 nM |
| Cc1cc(N)nc(C)c1CNC(=O)c1ccc2c(c1)[C@@H]1O[C@H]2c2ccc(Cc3ccccc3)cc21 (single isomer, unassigned) [Example 254] | 19.1 nM |
| N=C(N)c1cc(F)c(CNC(=O)c2ccc3c(c2)[C@@H]2O[C@H]3c3ccc(-c4ccc(F)cc4F)cc32)c(F)c1 (single isomer, unassigned) [Example 256] | 0.759 nM |
| Nc1cc(C2CC2)c(CNC(=O)c2ccc3c(c2)[C@@H]2O[C@H]3c3ccc(-c4ccc(F)cc4F)cc32)c(C2CC2)n1 (single isomer, unassigned) [Example 257] | 200000 nM |
| N=C(N)c1cccc(NC(=O)c2ccc3c(c2)[C@@H]2O[C@H]3c3ccc(-c4ccc(F)cc4F)cc32)c1 (single isomer, unassigned) [Example 258] | 10000 nM |
| N=C(N)c1ccc(CNC(=O)c2ccc3c(c2)[C@@H]2O[C@H]3c3ccc(C4CC4)cc32)cc1 (single isomer, unassigned) [Example 259] | 2 nM |
| Cc1cc(N)nc(C)c1CNC(=O)c1ccc2c(c1)[C@@H]1O[C@H]2c2ccc(N(c3cccc(F)c3)S(C)(=O)=O)cc21 (single isomer, unassigned) [Example 260] | 186 nM |
| Cc1cc(N)nc(C)c1CNC(=O)c1ccc2c(c1)[C@@H]1O[C@H]2c2ccc(N(C)c3cccc(Cl)c3)cc21 (single isomer, unassigned) [Example 262] | 8.91 nM |
| COc1ccc(Cl)c(CNC(=N)c2ccc3c(c2)[C@@H]2O[C@H]3c3ccc(-c4ccc(F)cc4F)cc32)c1F (single isomer, unassigned) [Example 264] | 2400 nM |
| Cc1nc(N)cc(C(C)C)c1CNC(=O)c1ccc2c(c1)[C@@H]1O[C@H]2c2ccc(-c3cc[n+]([O-])cc3F)cc21 (single isomer, unassigned) [Example 265] | 91.2 nM |
| Cc1nc(N)cc(C2=CCOC2)c1CNC(=O)c1ccc2c(c1)[C@@H]1O[C@H]2c2ccc(-c3ccc(F)cc3F)cc21 (single isomer, unassigned) [Example 267] | 97.7 nM |
| N=C(N)c1ccc(CNC(=O)c2ccc3c(c2)[C@@H]2O[C@H]3c3ccc(-c4ccc(F)cc4F)cc32)cn1 (single isomer, unassigned) [Example 268] | 5.01 nM |

| Compound | IC50 |
| --- | --- |
| CCOC(=O)N=C(N)c1cc(F)c(CNC(=O)c2ccc3c(c2)[C@@H]2O[C@H]3c3ccc(-c4ccc(F)cc4F)cc32)c(F)c1 (single isomer, unassigned) [Example 269] | 1230 nM |
| O=C(NCc1ccc(-c2noc(=O)[nH]2)cc1)c1ccc2c(c1)[C@@H]1O[C@H]2c2ccc(-c3ccc(F)cc3F)cc21 (single isomer, unassigned) [Example 270] | 100000 nM |
| CCOC(=O)N=C(N)c1ccc(CNC(=O)c2ccc3c(c2)[C@@H]2O[C@H]3c3ccc(-c4ccc(F)cc4F)cc32)cc1 (single isomer, unassigned) [Example 273] | 6030 nM |
| N=C(N)c1cc(F)c(CNC(=O)c2ccc3c(c2)[C@@H]2O[C@H]3c3ccc(-c4nccs4)cc32)c(F)c1 (single isomer, unassigned) [Example 275] | 2 nM |
| CC(C)(O)c1ccc2c(c1)[C@H]1O[C@@H]2c2ccc(C(=O)NCc3ccc(C(=N)N)cc3)cc21 (single isomer, unassigned) [Example 277] | 35.5 nM |
| Cc1nc(N)cc(C2CC2)c1CNC(=O)c1ccc2c(c1)[C@@H]1O[C@H]2c2ccc(-c3cc[n+]([O-])cc3F)cc21 (single isomer, unassigned) [Example 278] | 34.7 nM |
| Cc1ccc(C(=O)c2ccc3c(c2)[C@H]2O[C@@H]3c3ccc(C(=O)NCc4c(C)cc(N)nc4C)cc32)o1 (single isomer, unassigned) [Example 279] | 22.9 nM |
| N=C(N)c1cc(F)c(CNC(=O)c2ccc3c(c2)[C@@H]2O[C@H]3c3ccc(C4CC4)cc32)c(F)c1 (single isomer, unassigned) [Example 280] | 0.759 nM |
| CC(F)(F)c1ccc2c(c1)[C@H]1O[C@@H]2c2ccc(C(=O)NCc3ccc(C(=N)N)cc3)cc21 (single isomer, unassigned) [Example 281] | 10 nM |
| N#Cc1cc(NC(=N)c2ccc3c(c2)[C@@H]2O[C@H]3c3ccc(-c4ccc(F)cc4F)cc32)ccc1F (single isomer, unassigned) [Example 283] | 100000 nM |
| CC(C)(F)c1ccc2c(c1)[C@H]1O[C@@H]2c2ccc(C(=O)NCc3ccc(C(=N)N)cc3)cc21 (single isomer, unassigned) [Example 284] | 6.31 nM |
| C=C(C)c1ccc2c(c1)[C@H]1O[C@@H]2c2ccc(C(=O)NCc3c(F)cc(C(=N)N)cc3F)cc21 (single isomer, unassigned) [Example 285] | 1 nM |
| N=C(N)c1cc(F)c(CNC(=O)c2ccc3c(c2)[C@@H]2O[C@H]3c3ccc(-n4cccn4)cc32)c(F)c1 (single isomer, unassigned) [Example 286] | 2.45 nM |
| Cc1nc(N)cc(C(C)C)c1CNC(=O)c1ccc2c(c1)[C@@H]1O[C@H]2c2ccc(-c3c(F)ccc[n+]3[O-])cc21 (single isomer, unassigned) [Example 289] | 123 nM |
| N=C(N)c1ccc(CNC(=O)c2ccc3c(c2)[C@@H]2O[C@H]3c3ccc(-c4ccccc4F)cc32)c(F)c1 (single isomer, unassigned) [Example 290] | 1 nM |

The remaining lines, values ahead:

| IC50 | Compound |
| --- | --- |
| 100000 nM | NC(=O)c1cccc(CNC(=O)c2ccc3c(c2)[C@@H]2O[C@H]3c3ccc(-c4ccc(F)cc4F)cc32)c1 (single isomer, unassigned) [Example 292] |
| 20.9 nM | Nc1nccc2c(CNC(=O)c3ccc4c(c3)[C@@H]3O[C@H]4c4ccc(-c5ccccc5F)cc43)c(Cl)ccc12 (single isomer, unassigned) [Example 294] |
| 10000 nM | Nc1nccc2cc(Cl)c(CNC(=O)c3ccc4c(c3)[C@@H]3O[C@H]4c4ccc(-c5ccccc5F)cc43)cc12 (single isomer, unassigned) [Example 295] |
| 1 nM | N=C(N)c1cc(F)c(CNC(=O)c2ccc3c(c2)[C@@H]2O[C@H]3c3ccc(CCC(F)(F)F)cc32)c(F)c1 (single isomer, unassigned) [Example 296] |
| 2 nM | CC(C)c1ccc2c(c1)[C@H]1O[C@@H]2c2ccc(C(=O)NCc3c(F)cc(C(=N)N)cc3F)cc21 (single isomer, unassigned) [Example 298] |
| 30.9 nM | Cc1ccc2c(N)nccc2c1CNC(=O)c1ccc2c(c1)[C@@H]1O[C@H]2c2ccc(-c3ccccc3F)cc21 (single isomer, unassigned) [Example 299] |
| 1 nM | N=C(N)c1ccc(CNC(=O)c2ccc3c(c2)[C@@H]2O[C@H]3c3ccc(C4CC4)cc32)c(F)c1 (single isomer, unassigned) [Example 302] |
| 8.91 nM | N=C(N)c1ccc(CNC(=O)c2ccc3c(c2)[C@@H]2O[C@H]3c3ccc(-n4cccn4)cc32)cc1 (single isomer, unassigned) [Example 305] |
| 1 nM | Cc1cc(C(=N)N)ccc1CNC(=O)c1ccc2c(c1)[C@@H]1O[C@H]2c2ccc(-c3ccc(F)cc3F)cc21 (single isomer, unassigned) [Example 306] |
| 1 nM | N=C(N)c1ccc(CNC(=O)c2ccc3c(c2)[C@@H]2O[C@H]3c3ccc(N4CC(F)(F)C4)cc32)cc1 (single isomer, unassigned) [Example 307] |
| 1 nM | Cc1cc(C(=N)N)ccc1CNC(=O)c1ccc2c(c1)[C@@H]1O[C@H]2c2ccc(-n3cccn3)cc21 (single isomer, unassigned) [Example 312] |
| 100000 nM | O=C(NCC1CNC1)c1ccc2c(c1)[C@@H]1O[C@H]2c2ccc(-c3ccc(F)cc3F)cc21 (single isomer, unassigned) [Example 323] |
| 100000 nM | O=C(N[C@@H]1CCNC1)c1ccc2c(c1)[C@@H]1O[C@H]2c2ccc(-c3ccc(F)cc3F)cc21 (single isomer, unassigned) [Example 324] |
| 42700 nM | O=C(N[C@H]1CCNC1)c1ccc2c(c1)[C@@H]1O[C@H]2c2ccc(-c3ccc(F)cc3F)cc21 (single isomer, unassigned) [Example 325] |
| 427 nM | N=C(N)c1ccc(CNC(=O)c2ccc3c(c2)[C@@H]2O[C@H]3c3ccc(C4CC4)cc32)nc1 (single isomer, unassigned) [Example 327] |
| 7.08 nM | CC(C)c1ccc2c(c1)[C@H]1O[C@@H]2c2ccc(C(=O)NCc3ccc(C(=N)N)cc3)cc21 (single isomer, unassigned) [Example 328] |
| 1 nM | N=C(N)c1ccc(CNC(=O)c2ccc3c(c2)[C@@H]2O[C@H]3c3ccc(-c4ccc(F)cc4)cc32)c(F)c1 (single isomer, unassigned) [Example 329] |
| 1 nM | Cc1cc(C(=N)N)cc(C)c1CNC(=O)c1ccc2c(c1)[C@@H]1O[C@H]2c2ccc(C3CC3)cc21 (single isomer, unassigned) [Example 331] |
| 63.1 nM | N=C(N)c1ccc(CNC(=O)c2ccc3c(c2)[C@@H]2O[C@H]3c3ccc(-c4ccc(F)cc4F)cc32)nc1 (single isomer, unassigned) [Example 332] |
| 5.01 nM | N=C(N)c1cc(F)c(CNC(=O)c2ccc3c(c2)[C@@H]2O[C@H]3c3ccc(N4CCS(=O)(=O)CC4)cc32)c(F)c1 (single isomer, unassigned) [Example 336] |
| 26.9 nM | N=C(N)c1ccc(CNC(=O)c2ccc3c(c2)[C@@H]2O[C@H]3c3ccc(N4CCS(=O)(=O)CC4)cc32)cc1 (single isomer, unassigned) [Example 337] |
